The source of these data is US20050101618A1, “Selective erbB2 inhibitor/anti-erbB antibody combinations in the treatment of cancer” (Pfizer Inc, priority 2003, published 2005).

Each structure is given as a SMILES string.

The term Cmax denotes the peak of the concentration-time curve.

Data set [1] concerns BT-474 human breast adenocarcinoma. Nature of the data set: BT-474 xenograft tumor growth inhibition in athymic female mice. The format is in vivo. Here is the method: The activity of the compounds of formula 1, in vivo, can be determined by the amount of inhibition of tumor growth by a test compound relative to a control. The tumor growth inhibitory effects of various compounds are measured according to the method of Corbett T. H., et al., “Tumor Induction Relationships in Development of Transplantable Cancers of the Colon in Mice for Chemotherapy Assays, with a Note on Carcinogen Structure”, Cancer Res., 35, 2434-2439 (1975) and Corbett T. H., et al., “A Mouse Colon-tumor Model for Experimental Therapy”, Cancer Chemother. Rep. (Part 2)”, 5, 169-186 (1975), with slight modifications. Tumors are induced in the left flank by subcutaneous (sc) injection of 5 million log phase cultured tumor cells (BT-474 human breast adenocarcinoma) suspended in Matrigel (1:1 in PBS). […] Rep., 3, 1-104 (1972). Results are expressed as percent inhibition, according to the formula: Inhibition (%)=(TuWcontrol−TuWtest)/TuWcontrol×100%. The flank site of tumor implantation provides reproducible dose/response effects for a variety of chemotherapeutic agents, and the method of measurement (tumor diameter) is a reliable method for assessing tumor growth rates.
Statistical Analysis: The statistical analysis of tumor growth was done using SAS Version 8, PROC GLM by Non-clinical statistical group.

A short description of data set [2]: Whole blood pharmacokinetics of agent 182 in BT-474 tumor-bearing mice (LC-MS/MS). The format is in vivo. The note with it: for Cmax: mouse; for Cave0-2 h of Agent 182: day 28. As to the method: (§1) Whole blood samples (˜50 μl) were collected at 0.5, 1, 2, 4 & 8 h post-dose on day 28 for PK analysis as described below. Tumors were isolated 0.5 h post-dose on day 28 for PD analysis by ELISA.
Blood Sample Analysis: Aliquots (100 μL) of whole blood were diluted with 100 μL acetonitrile (25%) containing an internal standard (CP-702,453, 0.5 μg/ml). Samples were extracted with methyl-tert-butyl ether (MTBE) and 0.1M sodium hydroxide by liquid-liquid extraction using a 96-well technology. After brief vortexing, samples were centrifuged (3000 rpm for 10 min) and the supernatant was transferred into a 96-well plate and evaporated to dryness at 40° C. under a slow stream of nitrogen gas. The residue was reconstituted with 200 μL of 25% acetonitrile and vortexed for approximately 2 min.
The mobile phase was delivered as 90% 10 mM ammonium acetate with 0.1% formic acid and 10% acetonitrile for the first 1 min followed by a linear gradient from 10% to 90% acetonitrile over 1 min. Then the mobile phase was delivered isocratically at 90% acetonitrile for 1 min before a subsequent gradient back to 10% acetonitrile over 0.1 min. The column was then allowed to re-equilibrate at 90% 10 mM ammonium acetate with 0.1% formic acid and 10% acetonitrile for 1.0 min before the next sample injection.
Data collection and integration were accomplished using Analyst (version 1.2). The ratio of peak area responses of drug relative to internal standard was used to construct a standard curve using a linear least squares regression with a 1/x weighting. The dynamic range of the assay was 1.0 to 1000 ng/mL. The performance of the assay was monitored by inclusion of quality control samples prepared in mouse whole blood from a separate weighing. Further details are located in notebook #62874.
PK Data Calculation: Pharmacokinetic parameters were determined by the noncompartmental methods using WinNonLin™, version 3.2. The maximum whole blood concentration (Cmax) and the time at which this concentration was achieved (Tmax) were directly taken from the raw data. Area under the whole blood concentration versus time curve (AUC) was calculated using linear trapezoidal approximation. For estimation of the means and pharmacokinetic parameters, concentrations at the 0 hr and those <LLOQ (1 ng/mL) were assumed to be 0 ng/mL. The means were calculated only if more than 50% of the data exceeded LLOQ of the assay.

The target of data set [3] is T1, erbB2-autophosphorylation (p-erbB2) (Homo sapiens, UniProt P04626).
T1 construct: endogenous in cells; host or cells: BT-474 human breast adenocarcinoma cells grown as subcutaneous xenografts in female athymic mice
Nature of the data set: Tumor p-erbB2 reduction (PD) by ELISA in BT-474 tumor-bearing mice. The data set is classed as in vivo. The note with it: 0.5 hr after dosing on day 28. As to the method:
as §1
The p-erbB2 levels, i.e., the level of the phosphorylated form of erbB2, were also determined in tumor samples of all groups at 0.5 hr post-dosing on day 28 (Table 5).

Data set [4] is described as follows: Body weight and tolerability in BT-474 tumor-bearing mice.
Experimental: Cells were inoculated SC (5 million cells/animal) into female athymic mice. […] The tumor measurements and body weight changes were obtained on days 1, 5, 8, 12, 15, 19, 22, 26 and 28. Tumor volume was calculated by the following formula: Tumor volume (mm^3)=(W×W)/2×L (L=length & W=width).
• Values given represent the average tumor volume (mm^3) ±SE; Values in parenthesis are the average body weight (g). • % Growth Inhibition=[Tumor volume on day 28 of treated group (mm^3)×100/Tumor volume on day 28 of vehicle group (mm^3)]−100 • % Regression=[Tumor volume on day 28 (mm^3)×100/Tumor volume on day 1(mm^3)]−100

T1 sequence (P04626 23-1255): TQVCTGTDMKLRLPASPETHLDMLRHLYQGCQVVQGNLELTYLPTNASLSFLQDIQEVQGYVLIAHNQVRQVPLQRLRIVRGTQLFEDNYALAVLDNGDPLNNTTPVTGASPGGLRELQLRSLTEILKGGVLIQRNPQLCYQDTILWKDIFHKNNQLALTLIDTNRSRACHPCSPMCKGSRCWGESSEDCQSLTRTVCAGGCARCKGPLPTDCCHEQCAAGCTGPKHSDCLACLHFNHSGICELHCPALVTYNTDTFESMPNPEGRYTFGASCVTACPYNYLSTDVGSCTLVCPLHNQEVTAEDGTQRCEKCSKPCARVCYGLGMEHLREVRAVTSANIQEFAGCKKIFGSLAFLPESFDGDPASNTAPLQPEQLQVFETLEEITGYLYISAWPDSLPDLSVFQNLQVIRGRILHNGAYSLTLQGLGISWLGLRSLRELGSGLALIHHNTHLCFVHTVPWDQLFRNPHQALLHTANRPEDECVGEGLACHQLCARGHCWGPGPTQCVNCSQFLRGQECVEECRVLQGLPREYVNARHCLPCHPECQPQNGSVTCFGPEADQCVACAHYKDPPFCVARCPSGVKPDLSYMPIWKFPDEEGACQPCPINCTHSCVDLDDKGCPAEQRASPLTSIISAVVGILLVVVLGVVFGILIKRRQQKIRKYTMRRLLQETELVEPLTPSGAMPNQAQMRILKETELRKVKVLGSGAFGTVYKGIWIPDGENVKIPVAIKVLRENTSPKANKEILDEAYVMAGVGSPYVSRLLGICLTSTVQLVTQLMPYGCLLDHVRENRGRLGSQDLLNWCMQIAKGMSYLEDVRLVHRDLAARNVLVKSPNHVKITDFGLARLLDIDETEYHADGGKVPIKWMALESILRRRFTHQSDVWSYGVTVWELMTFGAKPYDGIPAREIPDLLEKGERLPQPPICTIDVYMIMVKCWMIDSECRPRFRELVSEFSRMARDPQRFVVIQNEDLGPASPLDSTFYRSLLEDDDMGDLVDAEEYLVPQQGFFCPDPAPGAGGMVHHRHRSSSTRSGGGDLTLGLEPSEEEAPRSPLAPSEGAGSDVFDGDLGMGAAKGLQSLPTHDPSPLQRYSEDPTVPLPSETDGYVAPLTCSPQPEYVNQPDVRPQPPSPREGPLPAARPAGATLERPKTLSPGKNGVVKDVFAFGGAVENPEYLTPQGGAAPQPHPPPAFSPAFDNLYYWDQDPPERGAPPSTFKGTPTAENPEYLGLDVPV

For `COCC(=O)NC/C=C/c1ccc2ncnc(Nc3ccc(Oc4ccc(C)nc4)c(C)c3)c2c1` [Agent 182, E-2-Methoxy-N-(3-{4-[3-methyl-4-(6-methyl-pyridin-3-yloxy)-phenylamino]-quinazolin-6-yl}-allyl)-acetamide], in data set [1] (28 days, Agent 182 50 mg/kg PO QD), the “% Growth inhibition” value is given as 40%. The “Tumor volume Day 28” value in data set [1] (Agent 182 25 mg/kg PO QD) amounted to 327 ± 45 mm^3; in data set [1] (Agent 182 50 mg/kg PO QD) it was 246 ± 36 mm^3. In addition, the “Efficacy against BT-474 tumors which over-express erbB2” value in data set [1] (background statement) is “efficacious”. In addition, the Cmax was 365 ng/mL in data set [2] (female, athymic, whole blood, po, 25 mg/kg); 2440 ± 740 ng/mL in data set [2] (female, athymic, whole blood, po, 50 mg/kg); 417 to 967 ng/mL in data set [2] (in vivo, 25 mg/kg group, earlier observations). Also, the “Cave0-2 h of Agent 182” value is 186 ± 71 ng/mL in data set [2] (whole blood, Agent 182 25 mg/kg PO QD) and 1050 ± 330 ng/mL in data set [2] (whole blood, Agent 182 50 mg/kg PO QD). Also, the “% Reduction of erbB2-autophosphorylation” value in data set [3] (Agent 182 25 mg/kg PO QD, 25 mg/kg) is recorded as 16 ± 5 (N = 3) %; in data set [3] (Agent 182 25 mg/kg PO QD, listed as agent 182, 25 mg/kg), “Approximately 16%”; in data set [3] (Agent 182 50 mg/kg PO QD), 57 ± 5 (N = 4) %. Also, the “Average body weight Day 1” value in data set [4] (Agent 182 25 mg/kg PO QD) is listed as “(21) g”; in data set [4] (Agent 182 50 mg/kg PO QD) it was “(23) g”. The “Average body weight Day 28” value in data set [4] (Agent 182 25 mg/kg PO QD) is listed as “(23) g”; in data set [4] (Agent 182 50 mg/kg PO QD), “(25) g”.
